Reference: publication PMC11881906, “Development of xanthone derivatives as effective broad-spectrum antimicrobials: Disrupting cell wall and inhibiting DNA synthesis” (Science Advances, 2025)
≈ marks a conversion by molar mass, not a printed value. Read-outs that look alike come from different tables or passages of the source.

What was measured:
MRSA N315 = experiment: MIC, broth microdilution; format: cell-based; conditions: Staphylococcus aureus, 24-hour incubation, MHB, read-out: MIC90 MRSA N315
Experimental: (§1) MIC was determined using the broth microdilution method in accordance with Clinical and Laboratory Standards Institute guidelines. All compounds were dissolved in dimethyl sulfoxide (DMSO; final DMSO concentration of less than 0.5%) and sterile double-distilled water and then diluted with Mueller-Hinton broth (MHB). Each compound’s stock solution was serially twofold diluted, resulting in concentrations ranging from 0.39 to 100 μg/ml, and thereafter added to sterile 96-well plates. All bacterial cell suspensions were adjusted in MHB to attain a starting inoculum of 1 × 10^6 cells/ml. A total of 100 μl volume of the bacterial suspension was then added to each well. Following a 24-hour incubation at 37°C, the optical density at 600 nm (OD600) was confirmed by measuring absorbance at 600 nm with a BioTek microplate reader. […] All measurements were repeated three times with duplicates each time.

MRSA NCTC 10442 = experiment: MIC, broth microdilution; format: cell-based; conditions: Staphylococcus aureus; 24-hour incubation, MHB; read-out: MIC90 MRSA NCTC 10442
Experimental: as §1

S. aureus ATCC 29213 = experiment: MIC, broth microdilution; format: cell-based; conditions: Staphylococcus aureus, ATCC29213, 24 h, 24-hour incubation, MHB; read-out: MIC90 S. aureus ATCC 29213
Experimental: as §1

E. coli ATCC 25922 = experiment: MIC, broth microdilution; format: cell-based, Escherichia coli; conditions: 24-hour incubation, MHB; for MIC90: Escherichia coli, ATCC25922, 24 h, read-out: MIC90 E. coli ATCC 25922
Experimental: as §1

rabbit erythrocytes = experiment: Hemolysis assay; format: cell-based; conditions: concentration causing 50% hemolysis of red blood cells; 1 hour, 37°C
Experimental: The hemolytic activity of antimicrobial agents was investigated as previously described ([70]). Briefly, the rabbit erythrocytes were centrifuged at 2500 rpm for 3 min before being washed twice with sterile phosphate-buffered saline (PBS) (pH 7.4). Subsequently, the erythrocytes were diluted with PBS to a final concentration of 8% (v/v). The DMSO-dissolved compounds were twofold serially diluted in PBS to achieve a final concentration with DMSO less than 0.5%. […] Sterile PBS and 0.2% Triton X-100 were used as negative and positive controls, respectively. After 1 hour of incubation at 37°C, the tested samples were centrifuged at 2500 rpm for 5 min, and aliquots of the supernatant were added to 96-well microplates. The hemoglobin release was determined by measuring the absorbance at 576 nm using a BioTek multimode reader. The percentage of hemolytic activity was calculated using the following formula: Hemolysis rate (%) = [OD576 (compound) − OD576 (PBS)]/[OD576 (Triton X-100) − OD576 (PBS)] × 100. All measurements were repeated three times with duplicates each time.

[1] = test system: tested strains (Gram-positive and Gram-negative bacteria); experiment: MIC, summary over the tested strains; format: cell-based; conditions: read-out: MICs against the tested strains
Experimental: as §1

[2] = not the whole compound, cited from earlier work
A. baumannii ATCC 17978 = experiment: MIC, broth microdilution; format: cell-based; conditions: Acinetobacter baumannii, ATCC17978; 24-hour incubation, MHB
Experimental: as §1

A. baumannii R2889 = experiment: MIC, broth microdilution; format: cell-based; conditions: Acinetobacter baumannii, 24-hour incubation, MHB
Experimental: as §1

K. pneumonia ATCC 10031 = experiment: MIC, broth microdilution; format: cell-based; conditions: Klebsiella pneumoniae, ATCC10031; 24-hour incubation, MHB
Experimental: as §1

K. pneumonia ATCC 14581 = experiment: MIC, broth microdilution; format: cell-based; conditions: Klebsiella pneumoniae, ATCC14581; 24-hour incubation, MHB
Experimental: as §1

P. aeruginosa ATCC 9027 = experiment: MIC, broth microdilution; format: cell-based; conditions: Pseudomonas aeruginosa, ATCC9027; 24-hour incubation, MHB
Experimental: as §1

Gram-positive bacteria = experiment: MIC, summary over Gram-positive strains; format: cell-based; conditions: read-out: MICs against Gram-positive bacteria, three Gram-positive strains
Experimental: as §1

CCK-8 cytotoxicity assay = format: cell-based; conditions: mouse, NCTC clone 929 fibroblast cells, 25 μg/ml, read-out: %Viable cells NCTC clone 929 cells
Experimental: Cytotoxicity of the compound tested was assessed by CCK-8 assays as previously described ([71]). […] Following a 24-hour incubation, 10 μl of CCK-8 reagent was added to each well and incubated for 1 hour. The absorbance at 450 nm was measured by a microplate reader. All measurements were repeated three times with duplicates each time.

[3] = Gram-positive and Gram-negative strains

Structure (SMILES): CC(C)=CCOc1cc(OCCCN2CCSCC2)cc2oc3cc(OCCCN4CCSCC4)ccc3c(=O)c12 [XT11]
- MIC90 (MRSA N315): > 50 µg/mL
- MIC90 (MRSA NCTC 10442): > 50 µg/mL
- MIC90 (S. aureus ATCC 29213): > 50 µg/mL
- MIC90 (E. coli ATCC 25922): > 50 µg/mL
- HC50 (rabbit erythrocytes): >200 µg/mL
- MIC ([1]; 24 h): > 50 µg/mL
- pKa ([2]; for the free thiomorpholine group): 9.0

Structure (SMILES): CNCCCCCCCCOc1ccc2c(=O)c3c(OCC=C(C)C)cc(OCCCCCCCCNC)cc3oc2c1 [XT37]
- MIC90 (MRSA N315): 0.39 µg/mL (≈ 0.656 µM)
- MIC90 (MRSA NCTC 10442): 0.39 µg/mL (≈ 0.656 µM)
- MIC90 (S. aureus ATCC 29213): 0.78 µg/mL (≈ 1.31 µM)
- MIC90 (E. coli ATCC 25922): 6.25 µg/mL (≈ 10.5 µM)
- HC50 (rabbit erythrocytes): >200 µg/mL

Structure (SMILES): CC(C)=CCOc1cc(OCCCCN)cc2oc3cc(OCCCCN)ccc3c(=O)c12 [XT33]
- MIC90 (MRSA N315): 3.12 µg/mL (≈ 6.87 µM)
- MIC90 (MRSA NCTC 10442): 3.12 µg/mL (≈ 6.87 µM)
- MIC90 (S. aureus ATCC 29213): 3.12 µg/mL (≈ 6.87 µM)
- MIC90 (E. coli ATCC 25922): 12.5 µg/mL (≈ 27.5 µM)
- HC50 (rabbit erythrocytes): >200 µg/mL

Structure (SMILES): CC(C)=CCOc1cc(OCCCCNC(=N)N)cc2oc3cc(OCCCCNC(=N)N)ccc3c(=O)c12 [XT43]
- MIC90 (A. baumannii ATCC 17978): 12.5 µg/mL (≈ 23.2 µM)
- MIC90 (A. baumannii R2889): 25 µg/mL (≈ 46.4 µM)
- MIC90 (K. pneumonia ATCC 10031): 6.25 µg/mL (≈ 11.6 µM)
- MIC90 (K. pneumonia ATCC 14581): 12.5 µg/mL (≈ 23.2 µM)
- MIC90 (MRSA N315): 0.195 µg/mL (≈ 0.362 µM)
- MIC90 (MRSA NCTC 10442): 0.195 µg/mL (≈ 0.362 µM)
- MIC90 (P. aeruginosa ATCC 9027): 12.5 µg/mL (≈ 23.2 µM)
- MIC90 (S. aureus ATCC 29213): 0.195 µg/mL (≈ 0.362 µM)
- MIC90 E. coli ATCC 25922 (E. coli ATCC 25922): 1.56 µg/mL (≈ 2.9 µM)
- MIC90 (E. coli ATCC 25922): 1.56 to 12.5 µg/mL (≈ 2.9 to 23.2 µM)
- HC50 (rabbit erythrocytes): >200 µg/mL
- MIC (Gram-positive bacteria): 0.098 to 1.56 µg/mL (≈ 0.182 to 2.9 µM)
- viability at 24 h, 25 μg/ml (CCK-8 cytotoxicity assay): 40.3 ± 1.33%

Structure (SMILES): CC(C)=CCOc1cc(OCCCNCCN(CCN)CCN)cc2oc3cc(OCCCNCCN(CCN)CCN)ccc3c(=O)c12 [XT13]
- MIC90 (MRSA N315): 6.25 µg/mL (≈ 9.13 µM)
- MIC90 (MRSA NCTC 10442): 6.25 µg/mL (≈ 9.13 µM)
- MIC90 (S. aureus ATCC 29213): 6.25 µg/mL (≈ 9.13 µM)
- MIC90 (E. coli ATCC 25922): 50 µg/mL (≈ 73 µM)
- HC50 (rabbit erythrocytes): >200 µg/mL
- MIC [1, 3]: 6.25 to 50 µg/mL (≈ 9.13 to 73 µM)

Structure (SMILES): CCN(CC)CCCCCCCCOc1ccc2c(=O)c3c(OCC=C(C)C)cc(OCCCCCCCCN(CC)CC)cc3oc2c1 [XT38]
- MIC90 (MRSA N315): 0.78 µg/mL (≈ 1.15 µM)
- MIC90 (MRSA NCTC 10442): 1.56 µg/mL (≈ 2.3 µM)
- MIC90 (S. aureus ATCC 29213): 0.39 µg/mL (≈ 0.574 µM)
- MIC90 (E. coli ATCC 25922): > 50 µg/mL
- HC50 (rabbit erythrocytes): >200 µg/mL

Structure (SMILES): CCN(CC)CCCCOc1ccc2c(=O)c3c(OCC=C(C)C)cc(OCCCCN(CC)CC)cc3oc2c1 [XT32]
- MIC90 (MRSA N315): 6.25 µg/mL (≈ 11 µM)
- MIC90 (MRSA NCTC 10442): 3.12 µg/mL (≈ 5.51 µM)
- MIC90 (S. aureus ATCC 29213): 3.12 µg/mL (≈ 5.51 µM)
- MIC90 (E. coli ATCC 25922): 100 µg/mL (≈ 176 µM)
- HC50 (rabbit erythrocytes): >200 µg/mL

Structure (SMILES): CC(C)=CCOc1cc(OCCCN)cc2oc3cc(OCCCN)ccc3c(=O)c12 [XT07]
- MIC90 (MRSA N315): 12.5 µg/mL (≈ 29.3 µM)
- MIC90 (MRSA NCTC 10442): 12.5 µg/mL (≈ 29.3 µM)
- MIC90 (S. aureus ATCC 29213): 12.5 µg/mL (≈ 29.3 µM)
- MIC90 (E. coli ATCC 25922): 25 µg/mL (≈ 58.6 µM)
- HC50 (rabbit erythrocytes): >200 µg/mL
- MIC ([1]; 24 h): 12.5 to 50 µg/mL (≈ 29.3 to 117 µM)
- pKa ([2]; for the free primary amine group): 10.54

Structure (SMILES): CCCCN(CCCC)CCCOc1ccc2c(=O)c3c(OCC=C(C)C)cc(OCCCN(CCCC)CCCC)cc3oc2c1 [XT10]
- MIC90 (MRSA N315): 6.25 µg/mL (≈ 9.6 µM)
- MIC90 (MRSA NCTC 10442): 12.5 µg/mL (≈ 19.2 µM)
- MIC90 (S. aureus ATCC 29213): 12.5 µg/mL (≈ 19.2 µM)
- MIC90 (E. coli ATCC 25922): > 50 µg/mL
- HC50 (rabbit erythrocytes): >200 µg/mL

Structure (SMILES): CCN(CC)CCCCCCCCCCCCOc1ccc2c(=O)c3c(OCC=C(C)C)cc(OCCCCCCCCCCCCN(CC)CC)cc3oc2c1 [XT41]
- MIC90 (MRSA N315): 3.12 µg/mL (≈ 3.95 µM)
- MIC90 (MRSA NCTC 10442): 3.12 µg/mL (≈ 3.95 µM)
- MIC90 E. coli ATCC 25922 (E. coli ATCC 25922): >100 µg/mL
- MIC90 (E. coli ATCC 25922): > 100 µg/mL
- HC50 (rabbit erythrocytes): >200 µg/mL

Structure (SMILES): CNCCCCOc1ccc2c(=O)c3c(OCC=C(C)C)cc(OCCCCNC)cc3oc2c1 [XT31]
- MIC90 (MRSA N315): 6.25 µg/mL (≈ 13 µM)
- MIC90 (MRSA NCTC 10442): 6.25 µg/mL (≈ 13 µM)
- MIC90 (S. aureus ATCC 29213): 6.25 µg/mL (≈ 13 µM)
- MIC90 (E. coli ATCC 25922): 12.5 µg/mL (≈ 25.9 µM)
- HC50 (rabbit erythrocytes): >200 µg/mL

Structure (SMILES): CCN(CC)CCCOc1ccc2c(=O)c3c(OCC=C(C)C)cc(OCCCN(CC)CC)cc3oc2c1 [XT09]
- MIC90 (MRSA N315): 12.5 µg/mL (≈ 23.2 µM)
- MIC90 (MRSA NCTC 10442): 6.25 µg/mL (≈ 11.6 µM)
- MIC90 (S. aureus ATCC 29213): 6.25 µg/mL (≈ 11.6 µM)
- MIC90 (E. coli ATCC 25922): 50 µg/mL (≈ 92.8 µM)
- HC50 (rabbit erythrocytes): >200 µg/mL
- MIC [1, 3]: 6.25 to 50 µg/mL (≈ 11.6 to 92.8 µM)
